Reference: patent US12655130B2 (ASSEMBLY BIOSCIENCES, INC., priority 2020, dated 2026)

The compounds below were run on HBV viral load (viral production from HepAD38 cells) (assay: Activity of test compounds on viral production from HepAD38 cells (viral load by qPCR of HBV core sequence)). Conditions: Hepatitis B virus, HePAD38, 120 h, viral load lowering, 5 days, qPCR of supernatant, read-out: VL HepAD38 EC50 range.
Format: cell-based
Method in brief: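 HepAD38 cells seeded at 50,000/well in tetracycline-free medium with 2% FBS, treated 5 days at 37 °C with compounds from 10 μM top concentration. Supernatant HBV DNA quantified by TaqMan qPCR of core sequence against HBV DNA standards, relative to DMSO wells; viability by CellTiter-Glo; EC50/CC50 by four-parameter logistic fit.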

Cn1cnc(C2CC3CC(O)(c4c(F)c(OCC(O)C(F)(F)F)nn4C)CC3C2)c1C(=O)Nc1ccc(F)c(Cl)c1 (stereo not drawn) [Example 62, N-(3-Chloro-4-fluorophenyl)-4-(5-(4-fluoro-1-methyl-3-(3,3,3-trifluoro-2-hydroxypropoxy)-1H-pyrazol-5-yl)-5-hydroxyoctahydropentalen-2-yl)-1-methyl-1H-imidazole-5-carboxamide] and CC(=O)c1nn(C)c(C2(O)CC3CC(c4ncn(C)c4C(=O)Nc4ccc(F)c(Cl)c4)CC3C2)c1F (stereo not drawn) [Example 65, 4-(5-(3-Acetyl-4-fluoro-1-methyl-1H-pyrazol-5-yl)-5-hydroxyoctahydropentalen-2-yl)-N-(3-chloro-4-fluorophenyl)-1-methyl-1H-imidazole-5-carboxamide] cannot be ordered by EC50: under 10 nM for the first, under 10 nM for the second.

Cn1cnc(C2CC3CC(CC(N)=O)CC3C2)c1C(=O)Nc1ccc(F)c(Cl)c1 (stereo not drawn) [Example 17, 4-(5-(2-Amino-2-oxoethyl)octahydropentalen-2-yl)-N-(3-chloro-4-fluorophenyl)-1-methyl-1H-imidazole-5-carboxamide] and Cn1cnc(C2CC3CC(O)(CS(C)(=O)=O)CC3C2)c1C(=O)Nc1ccc(F)c(Cl)c1 (single isomer, unassigned) [Example 3, N-(3-Chloro-4-fluorophenyl)-4-(5-hydroxy-5-((methylsulfonyl)methyl)octahydropentalen-2-yl)-1-methyl-1H-imidazole-5-carboxamide] cannot be ordered by EC50: under 10 nM for the first, under 10 nM for the second.

First: CNc1nc(C2CC3CC(O)CC3C2)c(C(=O)Nc2ccc(F)c(Cl)c2)n1C (stereo not drawn) [Example 30, N-(3-Chloro-4-fluorophenyl)-4-(5-hydroxyoctahydropentalen-2-yl)-1-methyl-2-(methylamino)-1H-imidazole-5-carboxamide]
Second: CCNc1nc(C2CC3CC(O)CC3C2)c(C(=O)Nc2ccc(F)c(Cl)c2)n1C (stereo not drawn) [Example 41, 5-[-5-Hydroxy-1,2,3,3a,4,5,6,6a-octahydropentalen-2-yl]-N-(3-chloro-4-fluorophenyl)-2-(ethylamino)-3-methyl-4-imidazolecarboxamide]
The EC50 of the first is lower: under 10 nM for the first, 10 to 50 nM for the second.

Cn1cnc(C2(O)CC3CC(c4ncn(C)c4C(=O)Nc4ccc(F)c(Cl)c4)CC3C2)c1 (single isomer, unassigned) [Example 4, N-(3-Chloro-4-fluorophenyl)-4-(5-hydroxy-5-(1-methyl-1H-imidazol-4-yl)octahydropentalen-2-yl)-1-methyl-1H-imidazole-5-carboxamide] and Cn1cnc(C2CC3CC(O)(c4c(Cl)cnn4C)CC3C2)c1C(=O)Nc1ccc(F)c(Cl)c1 (stereo not drawn) [Example 122, 4-(5-(4-chloro-1-methyl-1H-pyrazol-5-yl)-5-hydroxyoctahydro-pentalen-2-yl)-N-(3-chloro-4-fluorophenyl)-1-methyl-1H-imidazole-5-carboxamide] cannot be ordered by EC50: under 10 nM for the first, under 10 nM for the second.

First: Cc1nc(C2CC3CC(O)(CS(C)(=O)=O)CC3C2)c(C(=O)Nc2ccc(F)c(Cl)c2)n1C (stereo not drawn) [Example 25, N-(3-Chloro-4-fluorophenyl)-4-(5-hydroxy-5-((methylsulfonyl)methyl)octahydropentalen-2-yl)-1,2-dimethyl-1H-imidazole-5-carboxamide]
Second: Cn1cnc(C2CC3CC(O)(CS(=O)(=O)c4ccc(F)cc4)CC3C2)c1C(=O)Nc1ccc(F)c(Cl)c1 (stereo not drawn) [Example 11, N-(3-Chloro-4-fluorophenyl)-4-(5-(((4-fluorophenyl)sulfonyl)methyl)-5-hydroxyoctahydropentalen-2-yl)-1-methyl-1H-imidazole-5-carboxamide]
The EC50 of the first is lower: under 10 nM for the first, 10 to 50 nM for the second. The first is the more potent here.

First: Cn1c(C#N)nc(C2CC3CC(O)CC3C2)c1C(=O)Nc1ccc(F)c(Cl)c1 (stereo not drawn) [Example 42, 5-[-5-Hydroxy-1,2,3,3a,4,5,6,6a-octahydropentalen-2-yl]-N-(3-chloro-4-fluorophenyl)-2-cyano-3-methyl-4-imidazolecarboxamide]
Second: Cn1cnc(C2CC3CC(O)(c4c[nH]nc4C(F)(F)F)CC3C2)c1C(=O)Nc1ccc(F)c(Cl)c1 (stereo not drawn) [Example 150, N-(3-Chloro-4-fluorophenyl)-4-(5-hydroxy-5-(3-(trifluoromethyl)-1H-pyrazol-4-yl)octahydropentalen-2-yl)-1-methyl-1H-imidazole-5-carboxamide]
The EC50 of the first is higher: 10 to 50 nM for the first, under 10 nM for the second.

Cn1cnc(C2CC3CC(O)(c4c(F)c(C(C)(C)O)nn4C)CC3C2)c1C(=O)Nc1ccc(F)c(Cl)c1 (stereo not drawn) [Example 66, N-(3-Chloro-4-fluorophenyl)-4-(5-(4-fluoro-3-(2-hydroxypropan-2-yl)-1-methyl-1H-pyrazol-5-yl)-5-hydroxyoctahydropentalen-2-yl)-1-methyl-1H-imidazole-5-carboxamide] and CC(CO)Oc1cc(C2(O)CC3CC(c4ncn(C)c4C(=O)Nc4ccc(F)c(Cl)c4)CC3C2)n(C)n1 (stereo not drawn) [Example 202, N-(3-Chloro-4-fluorophenyl)-4-(5-hydroxy-5-(3-((1-hydroxypropan-2-yl)oxy)-1-methyl-1H-pyrazol-5-yl)octahydropentalen-2-yl)-1-methyl-1H-imidazole-5-carboxamide] cannot be ordered by EC50: under 10 nM for the first, under 10 nM for the second.

CC(=O)NC(C)c1nn(C)cc1C1(O)CC2CC(c3ncn(C)c3C(=O)Nc3ccc(F)c(Cl)c3)CC2C1 (stereo not drawn) [Example 185, 4-(5-(3-(1-Acetamidoethyl)-1-methyl-1H-pyrazol-4-yl)-5-hydroxyoctahydropentalen-2-yl)-N-(3-chloro-4-fluorophenyl)-1-methyl-1H-imidazole-5-carboxamide] and CCOC(=O)Oc1cc(C2(O)CC3CC(c4ncn(C)c4C(=O)Nc4ccc(F)c(Cl)c4)CC3C2)n(C)n1 (stereo not drawn) [Example 222, 5-(5-(5-((3-Chloro-4-fluorophenyl)carbamoyl)-1-methyl-1H-imidazol-4-yl)-2-hydroxyoctahydropentalen-2-yl)-1-methyl-1H-pyrazol-3-yl ethyl carbonate] cannot be ordered by EC50: under 10 nM for the first, under 10 nM for the second.

First: Cn1cnc(C2CC3CC(O)(c4cc(C(F)(F)F)n[nH]4)CC3C2)c1C(=O)Nc1ccc(F)c(C#N)c1 (stereo not drawn) [Example 194, N-(3-Cyano-4-fluorophenyl)-4-(5-hydroxy-5-(3-(trifluoromethyl)-1H-pyrazol-5-yl)octahydropentalen-2-yl)-1-methyl-1H-imidazole-5-carboxamide]
Second: Cc1cc(NC(=O)c2c(C3CC4CC(O)(c5cn(C)nc5C(F)(F)F)CC4C3)ncn2C)ccc1F (stereo not drawn) [Example 171, N-(4-Fluoro-3-methylphenyl)-4-(5-hydroxy-5-(1-methyl-3-(trifluoromethyl)-1H-pyrazol-4-yl)octahydropentalen-2-yl)-1-methyl-1H-imidazole-5-carboxamide]
The EC50 of the first is higher: 10 to 50 nM for the first, under 10 nM for the second.

Same assay, conditions: viral load lowering, 5 days, qPCR of supernatant, read-out: VL HepAD38 EC50 range

First: CC(CO)Oc1cc(C2(O)CC3CC(c4ncn(C)c4C(=O)Nc4ccc(F)c(Cl)c4)CC3C2)n(C)n1 (stereo not drawn) [Example 67, N-(3-Chloro-4-fluorophenyl)-4-(5-hydroxy-5-(3-((1-hydroxypropan-2-yl)oxy)-1-methyl-1H-pyrazol-5-yl)octahydropentalen-2-yl)-1-methyl-1H-imidazole-5-carboxamide]
Second: Cn1cnc(C2CC3CC(NC4CC4)CC3C2)c1C(=O)Nc1ccc(F)c(Cl)c1 (single isomer, unassigned) [Example 45, 5-[-5-(Cyclopropylamino)-1,2,3,3a,4,5,6,6a-octahydropentalen-2-yl]-N-(3-chloro-4-fluorophenyl)-3-methyl-4-imidazolecarboxamide]
The EC50 of the first is lower: under 10 nM for the first, 10 to 50 nM for the second.

O=C1CC2CC(c3nc4n(c3C(=O)Nc3ccc(F)c(Cl)c3)CCCC4)CC2C1 (stereo not drawn) [Example 81, N-(3-Chloro-4-fluorophenyl)-2-(5-oxooctahydropentalen-2-yl)-5,6,7,8-tetrahydroimidazo[1,2-a]pyridine-3-carboxamide] was tested, and the EC50 was 10 to 50 nM.
